The data set can be described thus: in vitro. To be noted: human, hela cells, % viability.

The viability is a read-out of living cells in per cent, often relative to untreated cells. On to `O=C1CC(N2CCN(Cc3ccc4c(c3)OCO4)CC2)C(=O)N1CCc1ccccc1` (stereo not shown) [CBK074541], for which the viability at 28.5 h, 10 µM came to 93.7%.
Turning to `COc1ccc(-c2cccc(CC3(C(=O)NCc4cccs4)CCOCC3)c2)cc1` [CBK286514], the viability at 28.5 h, 10 µM came out at 88.5%.
On to `CC(C)NC(=O)N1Cc2nc[nH]c2C[C@H]1c1nc(-c2ccc3c(c2)OCO3)no1` [CBK289001], for which the viability at 28.5 h, 10 µM was found to be 94.5%.
`CC(=O)c1nnnn1C(C)(C)Cc1ccccc1` [CBK022088]: the viability at 28.5 h, 10 µM amounted to 91.3%.
The same measure, in the same setting: under `Cc1ccc(-c2noc(CN3CCN(C(c4ccccc4)c4ccccc4)CC3)n2)cc1` [CBK266425] stands 96.5%.
For the molecule `O=C(O)CCC(=O)NC1CCN(Cc2ccccc2)CC1` [CBK287103], the viability at 28.5 h, 10 µM was found to be 86.5%.
On the same count and under the same terms, under `CCCC[C@H]1CC[C@H](C(=O)Oc2ccc(OC(C)C(=O)O)cc2)CC1` (stereo partly shown) [CBK160854] stands 93.8%; under `COc1cccc(-c2ccc(NS(=O)(=O)c3ccc4c(c3)CCC(=O)N4)cc2)c1` [CBK286373], 87.1%; under `O=C(NCCn1cncn1)C1(c2ccccc2F)CC1` [CBK283087], 87%.
For the molecule `CCCCOc1nccnc1/C=C/c1ccccc1` [CBK106890], the viability at 28.5 h, 10 µM turned out to be 92%.
Turning to `COc1ccc(OCCNC(=O)c2ccc(-c3ccc(C(C)=O)s3)nc2N(C)C(C)=O)cc1` [CBK076576], the viability at 28.5 h, 10 µM turned out to be 95.5%.
With `CSCCC(NC(=O)CCc1ccccc1)c1nnc2ccccn12` (stereo not shown) [CBK304350], the viability at 28.5 h, 10 µM came out at 95.4%.
`CCN1CCC(CNS(=O)(=O)c2ccc(N3CCCC3=O)cc2)CC1` [CBK305663]: the viability at 28.5 h, 10 µM came to 101%.
As for `C[C@H](Nc1nc(-c2ccc(-c3ccccc3)cc2)cnc1N)c1ccccc1` [CBK063760], the viability at 28.5 h, 10 µM was 93.5%.
Take `Cc1ccc(NC(=O)COC(=O)CCc2c[nH]c(O)n2)cc1` [CBK265562]: the viability at 28.5 h, 10 µM stood at 89.9%.
In the case of `Cc1cc(S(=O)(=O)N2CCCC2)ccc1OCC(=O)O` [CBK268289], the viability at 28.5 h, 10 µM came to 89%.
Take `Nc1nnc(Sc2nc3cc(Cl)c(Cl)cc3nc2N2CCCC2)s1` [CBK115267]: the viability at 28.5 h, 10 µM worked out at 98.9%.
In the case of `COCc1cccc(-c2ncc(OCCN3CCCC3=O)nc2NC(C)=O)c1` [CBK145239], the viability at 28.5 h, 10 µM was 94.8%.
Consider `NS(=O)(=O)c1ccc(N/C=C2\C(=O)NC(=O)N(Cc3ccccc3Cl)C2=O)cc1` [CBK265586], for which the viability at 28.5 h, 10 µM (bulk resorufin, single well) was 92.3%.
Regarding `O=C(CSc1nnc(-c2ccc(Cl)cc2)n1-c1ccccc1)N/N=C/c1ccco1` [CBK262996], the viability at 28.5 h, 10 µM was determined as 91.6%.
In the case of `CCc1nnc(NS(=O)(=O)c2cc(C(=O)O)c(Cl)cc2F)s1` [CBK062195], the viability at 28.5 h, 10 µM was 90.9%.
For `CCOCCN(CCOCC)c1nnc2ccc(Cl)nn12` [CBK010024], the viability at 28.5 h, 10 µM came to 99.6%.
Consider `Cc1cc(S(=O)(=O)N2CCCC2)ccc1OCC(=O)NCc1ccncc1` [CBK269886], for which the viability at 28.5 h, 10 µM came to 91.3%.
As for `C[S+]([O-])CCNC(=O)Cn1c(-c2cccs2)cc2cccnc21` (stereo not shown) [CBK282556], the viability at 28.5 h, 10 µM came out at 89.3%.
Turning to `CN1CCC(N(C)C(=O)NCc2ccc(C#N)cc2)C1` (stereo not shown) [CBK156005], the viability at 28.5 h, 10 µM came out at 89.3%.
On the same count and under the same terms, under `CCN(CC)C(=O)c1ccc(NS(=O)(=O)c2cccc(Cl)c2C)cc1` [CBK034393] stands 108%.
Consider `CCN(CC)S(=O)(=O)c1ccc(C)c(NS(=O)(=O)c2cc(C(=O)O)n(C)c2)c1` [CBK297782], for which the viability at 28.5 h, 10 µM worked out at 99.5%.
For `Cc1cccc(C)c1NC(=O)C(C)Sc1nc2ccccc2c(=O)n1CC1CCCO1` (stereo not shown) [CBK068151], the viability at 28.5 h, 10 µM was determined as 95%.
As for `[2H]C(C(=O)NCc1ccc2c(c1)CCC2)n1cc(-c2ccc(CN3CCC(C)CC3)cc2)nn1` (stereo not shown) [CBK166081-L1], the viability at 28.5 h, 10 µM came out at 97.7%.
On the same count and under the same terms, then `Cc1cc(C)n(CC(O)CN(c2ccccc2)S(=O)(=O)c2ccccc2)n1` (stereo not shown) [CBK264469], with 118%; and `Cc1cc(NS(=O)(=O)c2ccc(NC(=O)/C=C/c3ccc(C)o3)cc2)nc(C)n1` [CBK265474], with 96.5%; and `Cc1cc(O)nc(C(C)N2CCCN(CC(F)(F)F)CC2)n1` (stereo not shown) [CBK305491], with 88.6%.
For the molecule `CN(CCC#N)S(=O)(=O)c1ccc(OC(F)(F)F)cc1` [CBK044415], the viability at 28.5 h, 10 µM is 88.1%.
As to `COC(=O)c1cc(NC(=O)CC2Sc3ccccc3NC2=O)cc(C(=O)OC)c1` (stereo not shown) [CBK266260], the viability at 28.5 h, 10 µM amounted to 99.6%.
With `S=C1NCC(COc2ccc(Cl)cc2)O1` (stereo not shown) [CBK015647], the viability at 28.5 h, 10 µM came out at 98.9%.
On to `Clc1ccccc1-c1nccnc1NCCc1ccncc1` [CBK038055], for which the viability at 28.5 h, 10 µM was found to be 98.1%.
For `O=C1NC2(CCC2)C(=O)N1Cc1nn(-c2ccccc2)c2c1CCC2` [CBK306383], the viability at 28.5 h, 10 µM was found to be 95.6%.
Take `Cc1ccc(OCC(=O)NCC2CCN(c3cnn(C)c(=O)c3)C2)cc1` (stereo not shown) [CBK306693]: the viability at 28.5 h, 10 µM came out at 83.6%.
Still for that read-out and setting: under `COc1ccccc1-c1cn2ccnc2c(NCc2ccccc2)n1` [CBK037372] stands 92.7%; under `CN(C)c1ncc(CNc2nc(O)c3c(n2)CCCC3)cn1` [CBK305460], 89.3%; under `Cc1cc(NC(=O)c2cc(Br)cnc2NCc2cccnc2)n(C)n1` [CBK076358], 90.7%.
Take `COC(=O)Nc1nc2cc3cn[nH]c3cc2[nH]1` [CBK016129]: the viability at 28.5 h, 10 µM is 105%.
As to `CN1CCN(CCOC(=O)NCc2ccnc3ccccc23)CC1` [CBK200148], the viability at 28.5 h, 10 µM came out at 94%.
On to `COc1ccc(O)c(CN2CCN(Cc3ccc(Cl)cc3)CC2)c1` [CBK263660], for which, under “bulk resorufin, single well”, the viability at 28.5 h, 10 µM was determined as 110%.
For the molecule `NC(=O)CSc1nnc2ccc3ccccc3n12` [CBK287794], the viability at 28.5 h, 10 µM stood at 110%.
Regarding `CC(=O)N1CCC(Cn2nc(-c3ccc(F)cc3)ccc2=O)CC1` [CBK282406], the viability at 28.5 h, 10 µM stood at 101%.
The same measure, in the same setting: then `COc1ncc(-c2ccc(Nc3ccc(N4CCOCC4)cc3)nc2)c(OC)n1` [CBK036988], with 95%; and `CC1CN(S(=O)(=O)c2ccc3c(c2)C(=O)c2cc(S(=O)(=O)N4CC(C)OC(C)C4)ccc2-3)CC(C)O1` (stereo not shown) [CBK263355], with 101%.
With `CSc1cc(C)c2c(c1)COC1(CCN(C(=O)Nc3c(C)noc3C)CC1)O2` [CBK060699], under “bulk resorufin, single well”, the viability at 28.5 h, 10 µM worked out at 95.3%.
Take `COc1ccc(S(=O)(=O)N(C)CC(=O)Nc2cccc(C(F)(F)F)c2)cc1OC` [CBK266242]: the viability at 28.5 h, 10 µM worked out at 95.5%.
`CS(=O)(=O)c1ccc(-c2nccnc2N2CCCCC2CO)cc1` (stereo not shown) [CBK037657]: the viability at 28.5 h, 10 µM amounted to 102%.
As to `CC(=O)C1=C(O)C(=O)N(CCCC(=O)O)C1c1ccc(Br)cc1` (stereo not shown) [CBK286784], the viability at 28.5 h, 10 µM was found to be 115%.
As for `CN(C)CCN(C)C(=O)c1cc(Br)cnc1N(C)S(C)(=O)=O` [CBK076476], the viability at 28.5 h, 10 µM is 96.2%.
On to `COc1nccnc1OC1CCN(Cc2ccc(C(F)(F)F)cc2)CC1` [CBK084243], for which the viability at 28.5 h, 10 µM was found to be 79.3%.
With `CNC(=O)NC(=O)C1CCN(CCc2ccccc2)CC1` [CBK034956], the viability at 28.5 h, 10 µM was found to be 106%.
For `CC(=O)O/C(N)=N/c1nonc1N` [CBK021885], the viability at 28.5 h, 10 µM was determined as 105%.
For the molecule `Cc1cc(NC(=O)N(Cc2cnn(C)c2)CC(C)C)ccc1F` [CBK304206], the viability at 28.5 h, 10 µM was 105%.
With `COc1ccc(Cl)cc1N1CCNCC1` [CBK013449C], the viability at 28.5 h, 10 µM (bulk resorufin, single well) came to 89.4%.
As for `COc1ccc(CCC(=O)Nc2cc(N3CCNCC3)ncn2)cc1` [CBK004231T], the viability at 28.5 h, 10 µM was 92.1%.
Take `Cn1cc([C@@H]2O[C@H](CO)[C@H](O)C2O)c(=O)n(C)c1=O` (stereo partly shown) [CBK201191]: the viability at 28.5 h, 10 µM was 97.1%.
For `O=C(C1=C(O)C(=O)N(CCCN2CCOCC2)C1c1cccnc1)c1ccco1` (stereo not shown) [CBK264528], the viability at 28.5 h, 10 µM worked out at 102%.
Take `CN(C)CCN(Cc1cccnc1)C(=O)Cc1ccc2c(c1)CCC2` [CBK282770]: the viability at 28.5 h, 10 µM is 109%.
As to `Cc1cc(C)c2c(NCc3ccc(C)o3)n[nH]c2n1` [CBK284621], the viability at 28.5 h, 10 µM was determined as 94.9%.
`CSCCC(=O)NCc1c(-c2ccccc2)noc1C` [CBK144092]: the viability at 28.5 h, 10 µM turned out to be 85.9%.
In the case of `Cc1ccc(S(=O)(=O)NCc2c(-c3ccccc3)c3cc(Br)ccc3[nH]c2=O)cc1` [CBK265231], the viability at 28.5 h, 10 µM is 98.3%.
`CN1CCN(C(=O)c2sccc2NS(=O)(=O)c2ccc3ccccc3c2)CC1` [CBK004631]: the viability at 28.5 h, 10 µM was 91.7%.
As to `CNC(=O)C1(Cc2ccccc2-c2ccccc2)CCN(C(=O)c2cccc(OC)c2)CC1` [CBK285922], the viability at 28.5 h, 10 µM was 85.3%.
Consider `CN1CCN(c2ccc(-c3cncc(NC4CCOCC4)n3)cn2)CC1` [CBK037229], for which the viability at 28.5 h, 10 µM is 105%.
As for `O=c1cnnc(Nc2cccc(Cl)c2Cl)[nH]1` [CBK287897], the viability at 28.5 h, 10 µM was 93%.
For `Cc1[nH]c2ccccc2c1C(=O)C(=O)Nc1sc(C)c(C)c1C#N` [CBK270038], the viability at 28.5 h, 10 µM was determined as 85.9%.
Consider `COc1ccccc1CN1CCC(Cc2ccccc2-c2ccccc2)(C(N)=O)CC1` [CBK285719], for which the viability at 28.5 h, 10 µM stood at 101%.
For `COc1cc(CN2CCN(Cc3cccc([N+](=O)[O-])c3)CC2)c([N+](=O)[O-])cc1OC` [CBK263111], the viability at 28.5 h, 10 µM stood at 99.9%.
In the case of `CN(C)C(=O)CC(O)c1cc2n(n1)CCN(Cc1cccs1)C2` (stereo not shown) [CBK306620], the viability at 28.5 h, 10 µM came to 113%.
Same read-out and setting: under `CSCCN1CCC2(CC1)CN(CC(N)=O)c1ccccc12` [CBK126801] stands 92.9%; under `O=C(O)CCC(=O)Nc1ccc(Br)c2cccnc12` [CBK265186], 105%; under `COC(=O)c1c(NC(=S)NNC(=O)c2nn(C)c(C)c2Br)sc2c1CCC(C)C2` (stereo not shown) [CBK267052], 93.9%.
In the case of `Brc1ccc(-c2ccnc3nc(-c4ccncc4)nn23)cc1` [CBK288623], the viability at 28.5 h, 10 µM came out at 102%.
`O=C(c1ccccc1)N1C[C@@H](c2ccsc2)[C@@H]2CN(Cc3ccccc3Cl)CC[C@@H]21` [CBK285613]: the viability at 28.5 h, 10 µM was 101%.
Turning to `CCN1C(=O)c2cccc3c(S(=O)(=O)N4CCCC4C(=O)O)ccc1c23` (stereo not shown) [CBK267169], the viability at 28.5 h, 10 µM is 109%.

For the origin of these results see publication PMC12040169 (PLOS Biology, 2025).
